Legend:
AtBFN2 [1] = biological target: T1, AtBFN2 (Arabidopsis thaliana, UniProt Q9C9G4); set-up: gene ENDO2; details: active site, tri-zinc cluster; crystals grown with 0.2 M Na2HPO4, 0.1 M Hepes pH 7.5
T1 sequence (Q9C9G4 28-290): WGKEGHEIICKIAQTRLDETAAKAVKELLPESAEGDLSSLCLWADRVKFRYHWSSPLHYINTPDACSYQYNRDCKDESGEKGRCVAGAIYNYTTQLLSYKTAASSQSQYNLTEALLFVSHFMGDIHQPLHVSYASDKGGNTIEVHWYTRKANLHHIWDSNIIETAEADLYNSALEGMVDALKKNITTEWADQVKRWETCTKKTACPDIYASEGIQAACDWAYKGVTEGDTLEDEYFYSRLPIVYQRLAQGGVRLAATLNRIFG

AtBFN2 [2] = biological target: T1, AtBFN2; experiment: acid-soluble ssDNA release, A260; assay type: biochemical; set-up: gene ENDO2; ENDO2 cDNA with C-terminal 6xHis tag, overexpressed in transgenic Arabidopsis seedlings; three Zn ions; details: heat-denatured ssDNA substrate; 100 mM Tris pH 7, 37 °C, 10 min; 1 mM Na3VO4

Structure (SMILES)	X-ray crystal structure, 2.0 Å (AtBFN2 [1])	% inhibition at 1 mM (AtBFN2 [2])
O=P(O)(O)O [phosphate]	have a phosphate anion displacing all coordinating waters, except Wat3 (Fig. 2D)	
[O]=[V]([OH])([OH])[OH] [vanadate]		80%

Source: PMC4144908, “Structural Insights of the ssDNA Binding Site in the Multifunctional Endonuclease AtBFN2 from Arabidopsis thaliana” (PLoS ONE, 2014)
